ChEMBL document CHEMBL1201862, “PubChem BioAssay data set” (2004)
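A five-concentration, 48-hour dose response in 96-well plates underlies each endpoint, interpolated linearly between surrounding concentrations. GI50 marks 50% less growth.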 Activity calls are given as the source filed them. Cut-off read from the data, not from the text of the source: active = GI50 up to about 1.1 µM and inactive = higher.

Key:
Test in all cases: DTP human tumour cell line panel, 48 h
IGROV-1 = test system: IGROV-1
OVCAR-3 = test system: OVCAR-3
EKVX = test system: EKVX
SK-MEL-5 = test system: SK-MEL-5
ACHN = test system: ACHN
Malme-3M = test system: Malme-3M
NCI-H23 = test system: NCI-H23
MDA-MB-231 = test system: MDA-MB-231
Hs-578T = test system: Hs-578T
A498 = test system: A498
SNB-19 = test system: SNB-19
OVCAR-5 = test system: OVCAR-5
SF-268 = test system: SF-268
SR = test system: SR
HCT-116 = test system: HCT-116
786-0 = test system: 786-0
HCT-15 = test system: HCT-15
CAKI-1 = test system: CAKI-1
SF-539 = test system: SF-539
DU-145 = test system: DU-145
SK-MEL-2 = test system: SK-MEL-2
PC-3 = test system: PC-3
HOP-92 = test system: HOP-92
MOLT-4 = test system: MOLT-4
NCI-H226 = test system: NCI-H226
HT-29 = test system: HT-29
SW-620 = test system: SW-620
K562 = test system: K562
HOP-62 = test system: HOP-62
SN12C = test system: SN12C
CCRF-CEM = test system: CCRF-CEM
OVCAR-8 = test system: OVCAR-8
UO-31 = test system: UO-31
MCF7 = test system: MCF7
MDA-N = test system: MDA-N
SF-295 = test system: SF-295
UACC-62 = test system: UACC-62
TK-10 = test system: TK-10
M14 = test system: M14
NCI/ADR-RES = test system: NCI/ADR-RES
SK-OV-3 = test system: SK-OV-3
COLO 205 = test system: COLO 205
A549 = test system: A549
SK-MEL-28 = test system: SK-MEL-28
MDA-MB-435 = test system: MDA-MB-435
RXF 393 = test system: RXF 393
HCC 2998 = test system: HCC 2998
LOX IMVI = test system: LOX IMVI
U-251 = test system: U-251
HL-60 = test system: HL-60
NCI-H460 = test system: NCI-H460
BT-549 = test system: BT-549
RPMI-8226 = test system: RPMI-8226
UACC-257 = test system: UACC-257
KM12 = test system: KM12
OVCAR-4 = test system: OVCAR-4
SNB-75 = test system: SNB-75
NCI-H522 = test system: NCI-H522

## COc1ccc(N2C(=O)CC(c3c[nH]c4ccccc34)C2=O)cc1 (stereo unspecified)
IGROV-1
  GI50: > 100000 nM (inactive)
OVCAR-3
  GI50: > 100000 nM (inactive)
EKVX
  GI50: > 100000 nM (inactive)
SK-MEL-5
  GI50: > 100000 nM (inactive)
ACHN
  GI50: > 100000 nM (inactive)
Malme-3M
  GI50: > 100000 nM (inactive)
NCI-H23
  GI50: > 100000 nM (inactive)
MDA-MB-231
  GI50: > 100000 nM (inactive)
Hs-578T
  GI50: 9080 nM (inactive)
A498
  GI50: > 100000 nM (inactive)
SNB-19
  GI50: > 100000 nM (inactive)
OVCAR-5
  GI50: > 100000 nM (inactive)
SF-268
  GI50: > 100000 nM (inactive)
SR
  GI50: > 100000 nM (inactive)
HCT-116
  GI50: > 100000 nM (inactive)
786-0
  GI50: > 100000 nM (inactive)
HCT-15
  GI50: > 100000 nM
CAKI-1
  GI50: > 100000 nM (inactive)
SF-539
  GI50: > 100000 nM (inactive)
DU-145
  GI50: > 100000 nM (inactive)
SK-MEL-2
  GI50: > 100000 nM (inactive)
PC-3
  GI50: > 100000 nM (inactive)
HOP-92
  GI50: > 100000 nM (inactive)
MOLT-4
  GI50: > 100000 nM (inactive)
NCI-H226
  GI50: > 100000 nM (inactive)
HT-29
  GI50: > 100000 nM (inactive)
SW-620
  GI50: > 100000 nM (inactive)
K562
  GI50: > 100000 nM (inactive)
HOP-62
  GI50: > 100000 nM (inactive)
SN12C
  GI50: > 100000 nM (inactive)
CCRF-CEM
  GI50: > 100000 nM (inactive)
OVCAR-8
  GI50: > 100000 nM (inactive)
UO-31
  GI50: > 100000 nM (inactive)
MCF7
  GI50: > 100000 nM (inactive)
MDA-N
  GI50: > 100000 nM (inactive)
SF-295
  GI50: > 100000 nM (inactive)
UACC-62
  GI50: > 100000 nM (inactive)
TK-10
  GI50: > 100000 nM (inactive)
M14
  GI50: > 100000 nM (inactive)
NCI/ADR-RES
  GI50: 97300 nM (inactive)
SK-OV-3
  GI50: > 100000 nM (inactive)
COLO 205
  GI50: > 100000 nM (inactive)
A549
  GI50: > 100000 nM (inactive)
SK-MEL-28
  GI50: > 100000 nM (inactive)
MDA-MB-435
  GI50: > 100000 nM (inactive)
RXF 393
  GI50: > 100000 nM (inactive)
HCC 2998
  GI50: > 100000 nM (inactive)
LOX IMVI
  GI50: > 100000 nM (inactive)
U-251
  GI50: > 100000 nM (inactive)
HL-60
  GI50: > 100000 nM (inactive)
NCI-H460
  GI50: > 100000 nM (inactive)
BT-549
  GI50: > 100000 nM (inactive)
RPMI-8226
  GI50: > 100000 nM (inactive)
UACC-257
  GI50: > 100000 nM (inactive)

## Cc1cccc2c(N)c3cccc(C(=O)NCCN4CCOCC4)c3nc12
IGROV-1
  GI50: 224 nM (active)
OVCAR-3
  GI50: 1470 nM (inactive)
EKVX
  GI50: 664 nM (active)
SK-MEL-5
  GI50: 853 nM (active)
ACHN
  GI50: 101 nM (active)
Malme-3M
  GI50: 280 nM (active)
NCI-H23
  GI50: 330 nM (active)
MDA-MB-231
  GI50: 759 nM (active)
Hs-578T
  GI50: 84.9 nM (active)
A498
  GI50: 1310 nM (inactive)
KM12
  GI50: 301 nM (active)
SNB-19
  GI50: 236 nM (active)
OVCAR-5
  GI50: 627 nM (active)
SF-268
  GI50: 60.3 nM (active)
SR
  GI50: 274 nM (active)
HCT-116
  GI50: 88.9 nM (active)
786-0
  GI50: 218 nM (active)
HCT-15
  GI50: 461 nM
CAKI-1
  GI50: 675 nM (active)
SF-539
  GI50: 171 nM (active)
DU-145
  GI50: 482 nM (active)
SK-MEL-2
  GI50: 1110 nM (active)
PC-3
  GI50: 436 nM (active)
HOP-92
  GI50: 3480 nM (inactive)
MOLT-4
  GI50: 27.8 nM (active)
HT-29
  GI50: 116 nM (active)
SW-620
  GI50: 166 nM (active)
K562
  GI50: 203 nM (active)
HOP-62
  GI50: 363 nM (active)
SN12C
  GI50: 364 nM (active)
CCRF-CEM
  GI50: 248 nM (active)
OVCAR-8
  GI50: 249 nM (active)
UO-31
  GI50: 460 nM (active)
MCF7
  GI50: 265 nM (active)
MDA-N
  GI50: 600 nM (active)
SF-295
  GI50: 318 nM (active)
UACC-62
  GI50: 984 nM (active)
TK-10
  GI50: 2100 nM (inactive)
M14
  GI50: 495 nM (active)
NCI/ADR-RES
  GI50: 4350 nM (inactive)
OVCAR-4
  GI50: 762 nM (active)
SNB-75
  GI50: 130 nM (active)
SK-OV-3
  GI50: 1050 nM (active)
COLO 205
  GI50: 294 nM (active)
A549
  GI50: 192 nM (active)
SK-MEL-28
  GI50: 1450 nM (inactive)
MDA-MB-435
  GI50: 570 nM (active)
RXF 393
  GI50: 697 nM (active)
HCC 2998
  GI50: 1480 nM (inactive)
LOX IMVI
  GI50: 230 nM (active)
U-251
  GI50: 531 nM (active)
HL-60
  GI50: 362 nM (active)
NCI-H460
  GI50: 605 nM (active)
NCI-H522
  GI50: 182 nM (active)
BT-549
  GI50: 1930 nM (inactive)
RPMI-8226
  GI50: 493 nM (active)
UACC-257
  GI50: 912 nM (active)
